Measured values: patent US20220323406A1, “METHODS AND COMPOSITIONS FOR DIFFERENTIATING STEM CELLS” (Massachusetts Institute of Technology, priority 2019, published 2022)
Structures can show the parent of a compound that is named as a salt.

Columns and labels:
[1] = system: ENR+CD organoids (ISC to Paneth cell differentiation); assay: Primary screen: basal (non-stimulated) lysozyme secretion LYZ.NS, 2.5-D 384-well ENR+CD organoid differentiation; assay type: cell-based, mouse
Source text: (§1) High-throughput screening.

[2] = system: ENR+CD organoids (ISC to Paneth cell differentiation); assay: Primary screen: CCh-stimulated lysozyme secretion LYZ.S, 2.5-D 384-well ENR+CD organoid differentiation; assay type: cell-based, mouse; settings: primary screen
Source text: as §1

ENR+CD organoids = assay: Primary screen: ATP (CellTiter-Glo 3D, CTG) cell number/viability, 2.5-D 384-well ENR+CD organoids; settings: primary screen;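 further: compounds given at plating and again on day 3 over a 6-day differentiation from ENR+CV stem-cell-enriched precursors, ATP measured on day 6, plate median as control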
[3] = primary screen, dose 0.08 uM, FC relative to plate median
[4] = primary screen, dose 0.08 uM, standard z score
[5] = primary screen, dose 0.40 uM, FC relative to plate median
[6] = primary screen, dose 0.40 uM, standard z score
[7] = primary screen, dose 2.00 uM, FC relative to plate median
[8] = primary screen, dose 2.00 uM, standard z score
[9] = primary screen, dose 10.00 uM, FC relative to plate median
[10] = primary screen, dose 10.00 uM, standard z score
[11] = dose 0.08 uM, FC relative to plate median
[12] = dose 0.40 uM, FC relative to plate median
[13] = dose 2.00 uM, FC relative to plate median
[14] = dose 10.00 uM, FC relative to plate median

SMILES | Dose.FC.LYZ.NS [1, 3] [log2 fold change] | Z.LYZ.NS [1, 4] | Dose.FC.LYZ.NS [1, 5] [log2 fold change] | Z.LYZ.NS [1, 6] | Dose.FC.LYZ.NS ([1]; primary screen, dose 0.08 uM) [log2 fold change] | Z.LYZ.NS (standard z score) ([1]; primary screen, dose 0.08 uM) | Dose.FC.LYZ.NS ([1]; primary screen, dose 0.40 uM) [log2 fold change] | Z.LYZ.NS (standard z score) ([1]; primary screen, dose 0.40 uM) | Dose.FC.LYZ.NS ([1]; primary screen, dose 2.00 uM) [log2 fold change] | Z.LYZ.NS (standard z score) ([1]; primary screen, dose 2.00 uM) | Dose.FC.LYZ.NS ([1]; primary screen, dose 10.00 uM) [log2 fold change] | Z.LYZ.NS (standard z score) ([1]; primary screen, dose 10.00 uM) | Dose.FC.LYZ.S ([2]; dose 0.08 uM) [log2 fold change] | Dose.FC.LYZ.S ([2]; dose 0.40 uM) [log2 fold change] | Dose.FC.LYZ.S ([2]; dose 2.00 uM) [log2 fold change] | Dose.FC.LYZ.S ([2]; dose 10.00 uM) [log2 fold change] | Dose.FC.CTG (ENR+CD organoids; dose 0.08 uM) [log2 fold change] | Dose.FC.CTG (ENR+CD organoids; dose 0.40 uM) [log2 fold change] | Dose.FC.CTG (ENR+CD organoids; dose 2.00 uM) [log2 fold change] | Dose.FC.CTG (ENR+CD organoids; dose 10.00 uM) [log2 fold change] | also measured
Cc1c(C(=O)NN2CCCCC2)nn(-c2ccc(Cl)cc2Cl)c1-c1ccc(Cl)cc1 [Rimonabant] | 0.108 | 0.936 | −0.063 | −0.545 |  |  |  |  |  |  |  |  |  |  |  |  |  |  |  |  | Dose.FC.LYZ.NS [1, 7]: −0.054 log2 fold change; Z.LYZ.NS [1, 8]: −0.467; Dose.FC.LYZ.NS [1, 9]: −0.044 log2 fold change; Z.LYZ.NS [1, 10]: −0.385; Dose.FC.LYZ.S [2, 11]: 0.089 log2 fold change; Dose.FC.LYZ.S [2, 12]: −0.003 log2 fold change; Dose.FC.LYZ.S [2, 13]: −0.053 log2 fold change; Dose.FC.LYZ.S [2, 14]: −0.098 log2 fold change; Dose.FC.CTG (ENR+CD organoids; [11]): 0.256 log2 fold change; Dose.FC.CTG (ENR+CD organoids; [12]): 0.206 log2 fold change; Dose.FC.CTG (ENR+CD organoids; [13]): 0.235 log2 fold change; Dose.FC.CTG (ENR+CD organoids; [14]): 0.063 log2 fold change
CCCSc1nc(N[C@@H]2C[C@H]2c2ccc(F)c(F)c2)c2nnn([C@@H]3C[C@H](OCCO)[C@@H](O)[C@H]3O)c2n1 [Ticagrelor] |  |  |  |  | 0.115 | 0.998 | −0.032 | −0.276 | 0.120 | 1.041 | 0.020 | 0.170 | 0.042 | 0.000 | 0.018 | 0.022 | −0.080 | −0.029 | −0.270 | −0.241 | 
CCc1c2c(nc3ccc(OC(=O)N4CCC(N5CCCCC5)CC4)cc13)-c1cc3c(c(=O)n1C2)COC(=O)[C@]3(O)CC [Irinotecan HCl Trihydrate] |  |  |  |  |  | −0.162 |  | −0.805 |  | −1.925 |  | −2.368 |  |  |  |  |  |  |  |  | Dose.FC.LYZ.NS (log2 fold change) ([1]; primary screen, dose 0.08 uM): −0.019; Dose.FC.LYZ.NS (log2 fold change) ([1]; primary screen, dose 0.40 uM): −0.092; Dose.FC.LYZ.NS (log2 fold change) ([1]; primary screen, dose 2.00 uM): −0.221; Dose.FC.LYZ.NS (log2 fold change) ([1]; primary screen, dose 10.00 uM): −0.272; Dose.FC.LYZ.S (log2 fold change) ([2]; dose 0.08 uM): −0.040; Dose.FC.LYZ.S (log2 fold change) ([2]; dose 0.40 uM): −0.158; Dose.FC.LYZ.S (log2 fold change) ([2]; dose 2.00 uM): −0.293; Dose.FC.LYZ.S (log2 fold change) ([2]; dose 10.00 uM): −0.367; Dose.FC.CTG (log2 fold change) (ENR+CD organoids; dose 0.08 uM): −0.083; Dose.FC.CTG (log2 fold change) (ENR+CD organoids; dose 0.40 uM): −0.205; Dose.FC.CTG (log2 fold change) (ENR+CD organoids; dose 2.00 uM): −0.317; Dose.FC.CTG (log2 fold change) (ENR+CD organoids; dose 10.00 uM): −0.588
Cn1c(N2CCCCS2(=O)=O)nc(C(=O)NCc2ccc(F)cc2)c(O)c1=O [BMS-707035] |  |  |  |  | 0.107 | 0.933 | 0.135 | 1.174 | 0.110 | 0.955 | 0.070 | 0.613 | 0.134 | 0.182 | 0.048 | 0.050 | 0.318 | 0.238 | 0.279 | 0.138 | 
Oc1c2ccccc2c2c3c(cccc13)N=N2 [SP600125] | 0.135 | 1.174 | 0.027 | 0.232 |  |  |  |  |  |  |  |  |  |  |  |  |  |  |  |  | Dose.FC.LYZ.NS [1, 7]: 0.152 log2 fold change; Z.LYZ.NS [1, 8]: 1.321; Dose.FC.LYZ.NS [1, 9]: 0.022 log2 fold change; Z.LYZ.NS [1, 10]: 0.187; Dose.FC.LYZ.S [2, 11]: 0.188 log2 fold change; Dose.FC.LYZ.S [2, 12]: 0.092 log2 fold change; Dose.FC.LYZ.S [2, 13]: 0.090 log2 fold change; Dose.FC.LYZ.S [2, 14]: 0.084 log2 fold change; Dose.FC.CTG (ENR+CD organoids; [11]): 0.197 log2 fold change; Dose.FC.CTG (ENR+CD organoids; [12]): 0.145 log2 fold change; Dose.FC.CTG (ENR+CD organoids; [13]): 0.103 log2 fold change; Dose.FC.CTG (ENR+CD organoids; [14]): −0.020 log2 fold change
CCCCCCCCCCCC1=C(O)C(=O)C=C(O)C1=O [Embelin] |  |  |  |  | −0.015 |  | −0.082 |  | −0.055 |  | −0.094 |  | −0.034 | −0.122 | −0.111 | −0.119 | −0.323 | −0.723 | −0.325 | −0.720 | Z.LYZ.NS ([1]; primary screen, standard z score, dose 0.08 uM): −0.129; Z.LYZ.NS ([1]; primary screen, standard z score, dose 0.40 uM): −0.712; Z.LYZ.NS ([1]; primary screen, standard z score, dose 2.00 uM): −0.482; Z.LYZ.NS ([1]; primary screen, standard z score, dose 10.00 uM): −0.819
